We go through 52 compounds from patent US8080657B2, “Compounds of reverse turn mimetics and the use thereof” (Choongwae Pharma Corporation, priority 2008, dated 2011).

Structures are written as SMILES. Like-named read-outs stand apart in the source and are kept apart here.

By IC50 is commonly meant the concentration at which inhibition is half-maximal.

The subject of this test is Wnt signaling. Put plainly: TopFlash reporter gene bioassay in SW480 cells. It is filed as cell-based. Conditions: Homo sapiens, read-out: RGA, IC50 (μM) TopF.
The mark [1] stands for this setting: SW480, TopFlash reporter gene assay, inhibition of Wnt signaling.

`C=CCN1CC(=O)N2[C@@H](Cc3ccc(OP(=O)(O)O)cc3)C(=O)N(Cc3cccc4c(-c5ccccc5)c[nH]c34)C[C@@H]2N1C(=O)NCc1ccccc1` [compound 22]: for the setting “SW480”, the half-inhibitory concentration (IC50) stood at 0.45 ± 0.29 µM.

`C=CCN1CC(=O)N2[C@@H](Cc3ccc(OP(=O)(O)O)cc3)C(=O)N(Cc3csc4cc(N)ccc34)C[C@@H]2N1C(=O)NCc1ccccc1` [compound 24]: the IC50 (SW480) came to 0.48 ± 0.11 µM.

Regarding `C=CCN1CC(=O)N2[C@@H](Cc3ccc(O)cc3)C(=O)N(Cc3cccc(C(=O)NCC4CC4)c3)C[C@@H]2N1C(=O)NCc1ccccc1` [compound 25], the IC50 under setting [1] turned out to be 0.52 ± 0.04 µM.

Turning to `C=CCN1CC(=O)N2[C@@H](Cc3ccc(O)cc3)C(=O)N(Cc3cccc4c3oc3ccccc34)C[C@@H]2N1C(=O)NCc1ccccc1` [compound 26], the IC50 under setting [1] was 0.52 ± 0.048 µM.

Regarding `C=CCN1CC(=O)N2[C@@H](Cc3ccc(O)cc3)C(=O)N(Cc3cccc4c(-c5ccccc5)cn(S(=O)(=O)c5ccccc5)c34)C[C@@H]2N1C(=O)NCc1ccccc1` [compound 27], under setting [1], the IC50 stood at 0.52 ± 0.09 µM.

Take `C=CCN1CC(=O)N2[C@@H](Cc3ccc(O)cc3)C(=O)N(Cc3ccc(F)c(-c4cccnc4)c3)C[C@@H]2N1C(=O)NCc1ccccc1` [compound 28]: under setting [1], the IC50 came to 0.52 ± 0.06 µM.

Regarding `C=CCN1CC(=O)N2[C@@H](Cc3ccc(OS(N)(=O)=O)cc3)C(=O)N(Cc3cccc4c(C(C)=O)c[nH]c34)C[C@@H]2N1C(=O)NCc1ccccc1` [compound 29], the IC50 under setting [1] is 0.53 ± 0.24 µM.

`C=CCN1CC(=O)N2[C@@H](Cc3ccc(O)cc3)C(=O)N(Cc3ccccc3[N+](=O)[O-])C[C@@H]2N1C(=O)NCc1ccccc1` [compound 30]: under setting [1], the IC50 was 0.54 ± 0.06 µM.

As to `C=CCN1CC(=O)N2[C@@H](Cc3ccc(OP(=O)(O)O)cc3)C(=O)N(Cc3cccc(OC)c3OC)C[C@@H]2N1C(=O)NCc1ccccc1` [compound 31], the IC50 (SW480) was 0.54 ± 0.08 µM.

Take `C=CCN1CC(=O)N2[C@@H](Cc3ccc(O)cc3)C(=O)N(Cc3csc4ccc([N+](=O)[O-])cc34)C[C@@H]2N1C(=O)NCc1ccccc1` [compound 32]: the IC50 under setting [1] is 0.56 ± 0.07 µM.

For the compound `C=CCN1CC(=O)N2[C@@H](Cc3ccc(O)cc3)C(=O)N(Cc3cccc(-c4ccc(F)nc4)c3)C[C@@H]2N1C(=O)NCc1ccccc1` [compound 33], the IC50 under setting [1] stood at 0.56 ± 0.44 µM.

Take `C=CCN1CC(=O)N2[C@@H](Cc3ccc(O)cc3)C(=O)N(Cc3cccc(-c4ccncc4)c3)C[C@@H]2N1C(=O)NCc1ccccc1` [compound 34]: under setting [1], the IC50 is 0.58 ± 0.132 µM.

For the compound `C=CCN1CC(=O)N2[C@@H](Cc3ccc(OP(=O)(O)O)cc3)C(=O)N(Cc3csc4ccccc34)C[C@@H]2N1C(=O)NCc1ccccc1` [compound 35], the IC50 (SW480) was 0.59 ± 0.066 µM.

Consider `C=CCN1CC(=O)N2[C@@H](Cc3ccc(O)cc3)C(=O)N(Cc3cccc4c3ncn4C(=O)CN)C[C@@H]2N1C(=O)NCc1ccccc1` [compound 37], for which, under setting [1], the IC50 is 0.6 ± 0.13 µM.

Turning to `C=CCN1CC(=O)N2[C@@H](Cc3ccc(O)cc3)C(=O)N(Cc3cccc(C(=O)NC4CCCCC4)c3)C[C@@H]2N1C(=O)NCc1ccccc1` [compound 38], the IC50 under setting [1] stood at 0.61 ± 0.09 µM.

On to `C=CCN1CC(=O)N2[C@@H](Cc3ccc(O)cc3)C(=O)N(Cc3cccc(-c4ccc(N)nc4)c3)C[C@@H]2N1C(=O)NCc1ccccc1` [compound 40], for which the concentration for half-maximal inhibition (IC50) under setting [1] was 0.63 ± 0.06 µM.

As for `C=CCN1CC(=O)N2[C@@H](Cc3ccc(O)cc3)C(=O)N(Cc3ccc(F)c4scnc34)C[C@@H]2N1C(=O)NCc1ccc(Cl)c(Cl)c1` [compound 41], the IC50 under setting [1] turned out to be 0.63 ± 0.09 µM.

`C=CCN1CC(=O)N2[C@@H](Cc3ccc(OP(=O)(O)O)cc3)C(=O)N(Cc3ccccc3SC)C[C@@H]2N1C(=O)NCc1ccccc1` [compound 42]: where the note is “SW480”, the concentration for half-maximal inhibition (IC50) amounted to 0.66 ± 0.0079 µM.

Consider `C=CCN1CC(=O)N2[C@@H](Cc3ccc(O)cc3)C(=O)N(Cc3csc4ccc(Cl)cc34)C[C@@H]2N1C(=O)NCc1ccccc1` [compound 43], for which the IC50 under setting [1] was 0.66 ± 0.06 µM.

`C#Cc1ccc(CNC(=O)N2[C@H]3CN(Cc4ccc(F)c5scnc45)C(=O)[C@H](Cc4ccc(O)cc4)N3C(=O)CN2CC=C)cc1` [compound 44]: the IC50 under setting [1] came to 0.67 ± 0.05 µM.

As for `C=CCN1CC(=O)N2[C@@H](Cc3ccc(O)cc3)C(=O)N(Cc3csc4cc(NC(=O)OC)ccc34)C[C@@H]2N1C(=O)NCc1ccccc1` [compound 45], the IC50 under setting [1] amounted to 0.67 ± 0.09 µM.

In the case of `C=CCN1CC(=O)N2[C@@H](Cc3ccc(O)cc3)C(=O)N(Cc3cccc(C(=O)OC)c3)C[C@@H]2N1C(=O)NCc1ccccc1` [compound 46], the IC50 under setting [1] amounted to 0.69 ± 0.15 µM.

With `C=CCN1CC(=O)N2[C@@H](Cc3ccc(O)cc3)C(=O)N(Cc3cccc4c3ccn4S(=O)(=O)c3ccc(C)cc3)C[C@@H]2N1C(=O)NCc1ccccc1` [compound 47], under setting [1], the IC50 is 0.69 ± 0.19 µM.

On to `C=CCN1CC(=O)N2[C@@H](Cc3ccc(O)cc3)C(=O)N(Cc3cccc(C(=O)NC)n3)C[C@@H]2N1C(=O)NCc1ccccc1` [compound 48], for which the IC50 under setting [1] turned out to be 0.7 ± 0.26 µM.

As to `C=CCN1CC(=O)N2[C@@H](Cc3ccc(O)cc3)C(=O)N(Cc3cccc4[nH]cnc34)C[C@@H]2N1C(=O)NCc1ccccc1` [compound 49], under setting [1], the IC50 was determined as 0.71 ± 0.43 µM.

Take `C=CCN1CC(=O)N2[C@@H](Cc3ccc(NC=O)cc3)C(=O)N(Cc3cccc4scnc34)C[C@@H]2N1C(=O)NCc1ccccc1` [compound 50]: the IC50 under setting [1] was 0.72 ± 0.075 µM.

`C=CCN1CC(=O)N2[C@@H](Cc3ccc(O)cc3)C(=O)N(Cc3csc4cc(NCCC(C)(C)C)ccc34)C[C@@H]2N1C(=O)NCc1ccccc1` [compound 51]: the IC50 under setting [1] was found to be 0.72 ± 0.15 µM.

For the compound `C=CCN1CC(=O)N2[C@@H](Cc3ccc(O)cc3)C(=O)N(Cc3cccc(Br)c3)C[C@@H]2N1C(=O)NCc1ccccc1` [compound 52], under setting [1], the IC50 came out at 0.73 ± 0.09 µM.

`C=CCN1CC(=O)N2[C@@H](Cc3ccc(O)cc3)C(=O)N(Cc3cccc(C(=O)NCc4cccs4)c3)C[C@@H]2N1C(=O)NCc1ccccc1` [compound 53]: the IC50 under setting [1] stood at 0.73 ± 0.03 µM.

For `C=CCN1CC(=O)N2[C@@H](Cc3ccc(O)cc3)C(=O)N(Cc3csc4ccc(NCc5ccccc5)cc34)C[C@@H]2N1C(=O)NCc1ccccc1` [compound 55], the IC50 under setting [1] was 0.74 ± 0.08 µM.

As to `C=CCN1CC(=O)N2[C@@H](Cc3ccc(O)cc3)C(=O)N(Cc3cccc(C(=O)NCc4ccccc4)c3)C[C@@H]2N1C(=O)NCc1ccccc1` [compound 56], under setting [1], the IC50 was 0.74 ± 1.46 µM.

In the case of `C=CCN1CC(=O)N2[C@@H](Cc3ccc(O)cc3)C(=O)N(Cc3cccc(NC=O)c3)C[C@@H]2N1C(=O)NCc1ccccc1` [compound 57], the IC50 under setting [1] came to 0.76 ± 0.12 µM.

With `C=CCN1CC(=O)N2[C@@H](Cc3ccc(O)cc3)C(=O)N(Cc3ccccc3OC(F)F)C[C@@H]2N1C(=O)NCc1ccccc1` [compound 58], the IC50 under setting [1] was 0.78 ± 0.13 µM.

Consider `C=CCN1CC(=O)N2[C@@H](Cc3ccc(O)cc3)C(=O)N(Cc3csc4c([N+](=O)[O-])cccc34)C[C@@H]2N1C(=O)NCc1ccccc1` [compound 59], for which the IC50 under setting [1] was found to be 0.78 ± 0.15 µM.

In the case of `C=CCN1CC(=O)N2[C@@H](Cc3ccc(O)cc3)C(=O)N(Cc3cccc(-c4cccc(C(N)=O)c4)c3)C[C@@H]2N1C(=O)NCc1ccccc1` [compound 60], the IC50 under setting [1] came out at 0.79 ± 0.1 µM.

In the case of `C=CCN1CC(=O)N2C(Cc3ccc(O)cc3)C(=O)N(Cc3cccc(-c4ccccn4)c3)C[C@@H]2N1C(=O)NCc1ccccc1` (stereo partly shown) [compound 61], under setting [1], the IC50 was 0.8 ± 0.07 µM.

Regarding `C=CCN1CC(=O)N2[C@@H](Cc3ccc(O)cc3)C(=O)N(Cc3cccc(-c4ccc(N5CCOCC5)nc4)c3)C[C@@H]2N1C(=O)NCc1ccccc1` [compound 62], the IC50 under setting [1] stood at 0.81 ± 0.15 µM.

On to `C=CCN1CC(=O)N2[C@@H](Cc3ccc(O)cc3)C(=O)N(Cc3cccc4c(C)c(-c5ccccc5F)n(S(=O)(=O)c5ccccc5)c34)C[C@@H]2N1C(=O)NCc1ccccc1` [compound 63], for which the concentration for half-maximal inhibition (IC50) under setting [1] came out at 0.82 ± 0.25 µM.

As to `C=CCN1CC(=O)N2[C@@H](Cc3ccc(O)cc3)C(=O)N(Cc3cccc4ccn(S(=O)(=O)c5ccc(C)cc5)c34)C[C@@H]2N1C(=O)NCc1ccccc1` [compound 64], the IC50 under setting [1] turned out to be 0.82 ± 0.33 µM.

On to `C=CCN1CC(=O)N2[C@@H](Cc3ccc(O)cc3)C(=O)N(Cc3cccc4cc[nH]c34)C[C@@H]2N1C(=O)NCc1ccccc1` [compound 65], for which, under setting [1], the IC50 turned out to be 0.83 ± 0.22 µM.

Regarding `C=CCN1CC(=O)N2[C@@H](Cc3ccc(O)cc3)C(=O)N(Cc3csc4cc(NCCC)ccc34)C[C@@H]2N1C(=O)NCc1ccccc1` [compound 66], the IC50 under setting [1] stood at 0.84 ± 0.09 µM.

For `C=CCN1CC(=O)N2[C@@H](Cc3ccc(O)cc3)C(=O)N(Cc3cn(C)c4ccccc34)C[C@@H]2N1C(=O)NCc1ccccc1` [compound 67], the IC50 under setting [1] was found to be 0.85 ± 0.089 µM.

With `C=CCN1CC(=O)N2[C@@H](Cc3ccc(O)cc3)C(=O)N(Cc3csc4cc(N)ccc34)C[C@@H]2N1C(=O)NCc1ccccc1` [compound 68], the IC50 under setting [1] was 0.86 ± 0.09 µM.

For `C=CCN1CC(=O)N2[C@@H](Cc3ccc(O)cc3)C(=O)N(Cc3ccc(F)c(C#N)c3)C[C@@H]2N1C(=O)NCc1ccccc1` [compound 69], the IC50 under setting [1] was 0.87 ± 0.32 µM.

Regarding `C=CCN1CC(=O)N2[C@@H](Cc3ccc(O)cc3)C(=O)N(Cc3ccc(F)c(OCCN4CCOCC4)c3)C[C@@H]2N1C(=O)NCc1ccccc1` [compound 70], under setting [1], the IC50 amounted to 0.9 ± 0.2 µM.

Regarding `C=CCN1CC(=O)N2[C@@H](Cc3ccc(O)cc3)C(=O)N(Cc3cccc4c3ncn4CCC)C[C@@H]2N1C(=O)NCc1ccccc1` [compound 71], under setting [1], the IC50 worked out at 0.9 ± 0.08 µM.

Turning to `C=CCN1CC(=O)N2[C@@H](Cc3ccc(O)cc3)C(=O)N(Cc3cccc(-c4ccsc4)c3)C[C@@H]2N1C(=O)NCc1ccccc1` [compound 72], under setting [1], the IC50 is 0.9 ± 0.13 µM.

Turning to `C=CCN1CC(=O)N2[C@@H](Cc3ccc(O)cc3)C(=O)N(Cc3cccc(C(C)=O)c3)C[C@@H]2N1C(=O)NCc1ccccc1` [compound 73], the IC50 under setting [1] came out at 0.9 ± 0.27 µM.

Turning to `C=CCN1CC(=O)N2[C@@H](Cc3ccc(O)cc3F)C(=O)N(Cc3ccc(F)cc3F)C[C@@H]2N1C(=O)NCc1ccccc1` [compound 74], the 50% inhibitory concentration (IC50) under setting [1] worked out at 0.91 ± 0.11 µM.

Regarding `C=CCN1CC(=O)N2[C@@H](Cc3ccc(O)cc3)C(=O)N(Cc3csc4cc([N+](=O)[O-])ccc34)C[C@@H]2N1C(=O)NCc1ccccc1` [compound 75], the IC50 under setting [1] is 0.92 ± 0.14 µM.

Consider `C=CCCNC(=O)c1cccc(CN2C[C@H]3N(C(=O)CN(CC=C)N3C(=O)NCc3ccccc3)[C@@H](Cc3ccc(O)cc3)C2=O)c1` [compound 76], for which, under setting [1], the IC50 is 0.94 ± 0.04 µM.

On to `C=CCN1CC(=O)N2[C@@H](Cc3ccc(OP(=O)(O)O)cc3)C(=O)N(Cc3ccc(F)c4scnc34)C[C@@H]2N1C(=O)NCc1ccc2c(c1)OCO2` [compound 77], for which the IC50 (SW480) turned out to be 0.94 ± 0.07 µM.
